Results published in PubChem BioAssay (NCI).
Several values for one entry are separate records, joined by “and”; a condition that tells them apart may be missing. Equal entries are not always repeated.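 Exposure lasted 48 hours, with cells grown in 96-well plates and compounds tested at five concentrations. GI50 = concentration required for 50% inhibition of growth. The concentration for full growth arrest is given as TGI.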

What was measured:
Assay in all cases: inhibition of tumour cell growth, NCI panel, 48 h
[1] = system: IGROV1 ovarian
[2] = system: M14 melanoma
[3] = system: ACHN renal
[4] = system: CCRF-CEM leukemia
[5] = system: KM12 colon
[6] = system: PC-3 prostate
[7] = system: T-47D breast
[8] = system: CAKI-1 renal
[9] = system: OVCAR-4 ovarian
[10] = system: K-562 leukemia
[11] = system: SW-620 colon
[12] = system: SR leukemia

Structure (SMILES) | TGI [1] [µM] | TGI [2] [µM] | TGI [3] | TGI [4] [µM] | TGI [5] [µM] | TGI [6] [µM] | TGI [7] [µM] | TGI [8] [µM] | TGI [9] [µM] | TGI [10] [µM] | TGI [11] [µM] | TGI [12] [µM] | GI50 [1] [µM] | GI50 [4] [µM] | GI50 [5] [µM] | GI50 [6] [µM] | GI50 [7] [µM] | GI50 [8] [µM] | GI50 [9] [µM]
Cc1ccc(OCC2OC(n3cnc4c(N(C)C)nc(Br)nc43)CC2Oc2ccc(C)cc2)cc1 (stereo not given) | > 100 | > 100 | > 100 µM | > 100 | > 100 | > 100 | > 100 | > 100 | > 100 | > 100 | > 100 |  |  |  |  |  |  |  | 
COc1ccc2[nH]c(Cl)c(/C=C3/C(=O)Nc4cc(C)c(OC)cc43)c2c1 | 17.1 | 14.2 | 21.4 µM | 19.1 | 23.2 | 16.1 | 30.4 | 21.7 |  | > 100 | 18.1 | > 100 |  |  |  |  |  |  | 
COc1ccccc1C1SCC(=O)N1c1ccc(-c2ccc(-n3c(-c4ccccc4)nc4ccccc4c3=O)cc2)cc1 (stereo not given) | > 100 | > 100 | > 100 µM | > 100 | > 100 | > 100 | > 100 | > 100 |  | > 100 | > 100 |  |  |  |  |  |  |  | 
Cc1sc2nc(-c3cc([N+](=O)[O-])c(Cl)cc3Cl)c(/C=N/N=C(N)N)n2c1C | 9.12 | 7 | 39.2 µM | > 100 | 19.5 | 36.2 |  | 33.9 | 9 | 9.95 | 69.3 |  |  |  |  |  |  |  | 
COc1cc(C2SCC(=O)N2c2ccc(-n3c(-c4ccccc4)nc4ccccc4c3=O)cc2)ccc1O (stereo not given) |  | > 100 | > 100 µM | > 100 | > 100 | > 100 | > 100 | > 100 | > 100 | > 100 | > 100 | > 100 |  |  |  |  |  |  | 
Cc1c2c(cc3c1[nH]c1ccccc13)C=NCC2 | 49.5 |  |  | 30.5 | 27.8 |  |  | 31.6 | 53 | 20.8 | 27.6 |  |  |  |  |  |  |  | 
O=C(Nc1nc2c(=O)[nH]cnc2s1)c1ccccc1 | > 100 |  | > 100 µM | > 100 |  | > 100 |  | > 100 | > 100 | > 100 | > 100 | 61.9 |  |  |  |  |  |  | 
O=C1CSc2nc3ccccc3n2/C=N\N1 |  | > 100 | > 100 µM | > 100 | > 100 | > 100 |  | > 100 | > 100 | > 100 | > 100 | > 100 |  |  |  |  |  |  | 
O=C(Nc1c[nH]c(=O)[nH]c1=O)C(Cl)Cl | > 100 | > 100 | > 100 µM | > 100 | > 100 | > 100 | > 100 | > 100 | > 100 | > 100 | > 100 |  |  |  |  |  |  |  | 
O=c1[nH]nc(-c2ccccc2)n1/N=C/c1c[nH]c2ccccc12 | > 100 | > 100 | > 100 µM | > 100 | > 100 | > 100 | > 100 | > 100 | > 100 | > 100 | > 100 |  |  |  |  |  |  |  | 
Cc1cc(O)c2c(c1O)C(=O)C13C(=C2O)C(=O)C2C(O)C1C1C(O)C3C(=O)C3=C(O)c4c(O)cc(C)c(O)c4C(=O)C321 (stereo not given) | 2.06 |  |  | 0.613 | 10.7 |  |  | 0.696 | 7.24 | 0.56 | 0.313 |  |  |  |  |  |  |  | 
NCCCn1c2ccccc2c2c3c(c4c(c21)CCC(O)CC4)C(=O)NC3=O (stereo not given) | 21.5 | 18.2 | 12.1 µM | 10.4 | 10.7 | 16.2 |  | 16.6 | 5.44 | 8.5 | 5.19 | 5.15 |  |  |  |  |  |  | 
CC(=O)[C@@H]1CCC=C2CC[C@]3(C)[C@@H](CC[C@@H]4[C@@]5(C)CCCNC(C)(C)[C@@H]5CC[C@]43C)[C@H]21 | 3.28 |  |  | 5.63 | 3.6 | 3.06 | 3.47 | 3.22 | 3.39 |  |  |  | 1.69 | 2.27 | 1.93 | 1.65 | 1.72 | 1.81 | 1.86
COc1cc2c(c(OC)c1OC)-c1ccc(SC)c(=O)cc1[C@@H](OC(C)=O)CC2 |  | > 100 | > 100 µM | 0.0312 | > 48.5 | > 100 | > 100 | > 100 | > 100 | > 100 | > 100 | > 100 |  |  |  |  |  |  | 
O=C(N=C1SCCN1C(=O)C(C(F)(F)F)C(F)(F)F)C(C(F)(F)F)C(F)(F)F | > 100 | > 100 | > 100 µM | > 100 |  | > 100 |  | > 100 | > 100 | > 100 | > 100 | > 100 |  |  |  |  |  |  | 
CNc1ccc(-c2nc3cc(C)ccc3o2)cc1 | > 100 | > 100 | > 100 µM | > 100 | > 100 | > 100 | > 100 | > 100 | > 100 | > 100 | > 100 |  |  |  |  |  |  |  | 
C=C1C[C@@H](O)C[C@@]2(C)C[C@@H]3OC(=O)C(=C)[C@@H]3C[C@H]12 | 28.8 |  |  | > 36.1 | 28.6 |  |  | 14.1 | 31.4 | > 100 | 18.1 |  |  |  |  |  |  |  | 
O=C1NC(N/N=C\C(O)C(O)C(O)CO)=N/C1=C/c1ccc(Cl)cc1 (stereo not given) | > 100 | 77.8 | 52.7 µM and 48.1 µM | > 100 | > 100 | > 100 | > 100 | > 100 | 57 | > 100 | > 100 |  |  |  |  |  |  |  | 
CCCCCC(=O)N[C@@H](c1ccccc1)C(O)C(=O)OC1C[C@@]2(O)C(OC(=O)c3ccccc3)C3[C@](C)(C(=O)[C@H](O)C(=C1C)C2(C)C)C(OC1OCC(O)C(O)C1O)C[C@H]1OC[C@@]31OC(C)=O (stereo not given in full) | > 100 | > 88.1 | > 100 µM | > 100 | > 38.3 | > 86.4 | > 100 |  | > 100 | > 100 | > 100 | 40.2 |  |  |  |  |  |  | 
O=C(/C=C/c1ccsc1)c1ccco1 | 22.8 | 24.2 | 22.8 µM | 22.9 | > 22.2 | 28.5 | 27.2 |  | > 37.2 | > 56.4 | 22 | 9.14 |  |  |  |  |  |  | 
